Reference: article PMC5177531 (ACS chemical neuroscience, 2016)
Like-named read-outs stand apart in the source and are kept apart here. Non-standard residues stand in square brackets, D forms with d. Residues, ends and D or L forms follow the SMILES beside them. Tic = O=C(O)[C@@H]1Cc2ccccc2CN1; Sar = CNCC(=O)O

Legend:
[1] = tested on: MOR-1 variants (Oprm1); conditions: mouse, in vivo; cited from earlier work
[2] = target: mKOR-1 (Mus musculus, UniProt P33534); test: Competition binding versus 125I-IBNtxA in mKOR-CHO membranes
[3] = target: mMOR-1 (Mus musculus, UniProt P42866); test: Competition binding versus 125I-IBNtxA in mMOR-CHO membranes
[4] = target: 6TM/E11 (Mus musculus, UniProt P42866); test: Competition binding versus 125I-IBNtxA at the 6TM-containing
[5] = target: 125I-IDAPP binding sites in C57/Bl6 brain homogenates (Mus musculus, UniProt P42866)
[6] = tested on: brain membranes (WT, E11 KO, E1/E11 KO); test: 35S-GTPγS binding in brain membranes
[7] = target: mDOR (Mus musculus, UniProt P32300); test: 35S-GTPγS binding in mDOR-CHO membranes; conditions: read-out: Max stimulation (% over basal)
[8] = target: mKOR (Mus musculus, UniProt P33534); test: 35S-GTPγS binding in mKOR-CHO membranes; conditions: read-out: Max stimulation (% over basal)
[9] = tested on: MOR-1 variants (Oprm1); assay type: in vivo, mouse; conditions: knockout and/or antisense models; Figs. 2,3,4
[10] = tested on: CD-1 mice; test: Cross tolerance in morphine pelleted mice, tail flick analgesia; assay type: in vivo, mouse; conditions: for analgesic ED50: i.c.v., 72 hr
[11] = target: spinal cord membranes (WT, E11 KO) (Mus musculus, UniProt P42866); test: 35S-GTPγS binding in spinal cord membranes
[12] = tested on: C57Bl/6 wild type (WT) and exon 11 KO (E11 KO) mice; test: Radiant heat tail flick analgesia in wild type and exon 11 KO mice; assay type: in vivo, mouse; conditions: for analgesic ED50: tail flick
[13] = target: mMOR (Mus musculus, UniProt P42866); test: 35S-GTPγS binding in mMOR-CHO membranes; conditions: read-out: Max stimulation (% over basal)
[14] = tested on: E1/E11 KO and E11 KO mice; conditions: cited from earlier work
[15] = target: mDOR-1 (Mus musculus, UniProt P32300); test: Competition binding versus 125I-IBNtxA in mDOR-CHO membranes
[16] = 0.1 nM 125I-IDAPP, C57/Bl6 brain homogenates, no blockers
[17] = E11 KO mice, supraspinal (i.c.v.; IDAPP also i.t.)

For `C[C@H]1[C@H]2C(=O)c3ccc(O)cc3[C@@]1(C)CCN2CC1CC1` [Ketocyclazocine], the “MOR-1 Variants required for analgesia” value [1] is listed as 6TM.

In the case of `N[C@@H](Cc1ccc(O)cc1)C(=O)N1Cc2ccccc2C[C@H]1C(=O)N[C@@H](Cc1ccccc1)C(=O)N[C@@H](Cc1ccccc1)C(=O)O` [TIPP, Tyr-Tic-Phe-Phe-OH] (H-Y[Tic]FF-OH), the Ki [2] is reported as greater than 500 nM, the Ki [3] is reported as greater than 500 nM and the Ki [4] is reported as 163 ± 12 nM.

Work on `Oc1ccc2c3c1O[C@H]1c4[nH]c5ccccc5c4C[C@@]4(O)[C@@H](C2)N(CC2CC2)CC[C@]314` [Naltrindole] yielded a Ki [5, 16] greater than 1000 nM.

In the case of `C[C@@H](NC(=O)[C@@H](N)Cc1ccc(O)cc1)C(=O)NCC(=O)N(C)[C@@H](Cc1ccccc1)C(=O)NCCO` [DAMGO, [D-Ala^2,N-MePhe^4,Gly(ol)^5]-enkephalin], the “Max stimulation (% over basal)” value ([6]; E1/E11 KO) is reported as −6 ± 1 % over basal, the EC50 ([6]; E11 KO) is reported as 220 ± 13 nM and the “Max stimulation (% over basal)” value ([6]; E11 KO) is reported as 19 ± 6 % over basal. For the same compound, the EC50 ([6]; WT) was 190 ± 8 nM, the “Max stimulation (% over basal)” value ([6]; WT) was 15 ± 2 % over basal and the “Hill Slope” value [5, 16] was −0.9 ± 0.1. The Emax [7] was -2 ± 7%, the Emax [8] was -16 ± 8% and the “MOR-1 Variants required for analgesia” value [9] was 7TM. For the same compound, the “analgesic ED50” value ([10]; morphine pellet (75 mg free base) CD-1 mice) was 1.5 ± 0.47 µg, the “analgesia in morphine pelleted mice (cross tolerance)” value ([10]; morphine pelleted versus placebo) was “cross tolerant with morphine” and the “analgesic ED50” value ([10]; placebo pellet CD-1 mice) was 0.04 ± 0.02 µg. For the same compound, the Emax ([11]; read-out: Max stimulation (% over basal), spinal cord, E11 KO) was 7 ± 4%, the Emax ([11]; read-out: Max stimulation (% over basal), spinal cord, WT) was 11 ± 2% and the “analgesic ED50” value ([12]; E11 KO mice, i.c.v.) was 0.23 µg. The “analgesic ED50” value ([12]; E11 KO mice, i.t.) was 0.27 µg, the “analgesic activity in E11 KO mice” value ([12]; E11 KO mice, spinal (i.t.)) was “still elicited a full response” and the “analgesic activity in E11 KO mice” value [12, 17] was “retained full analgesic activity”. For the same compound, the “analgesic ED50” value ([12]; WT C57Bl/6 mice, i.c.v.) was 0.13 µg, the “analgesic ED50” value ([12]; WT C57Bl/6 mice, i.t.) was 0.02 µg and the Emax [13] was 396 ± 21%.

In the case of `NC(=O)[C@H](Cc1ccccc1)NC(=O)[C@H](Cc1c[nH]c2ccccc12)NC(=O)[C@@H]1CCCN1C(=O)[C@@H](N)Cc1ccc(O)cc1` [Endomorphin 1, Tyr-Pro-Trp-Phe-NH2], the “Max stimulation (% over basal)” value ([6]; E1/E11 KO) is reported as −5 ± 3 % over basal, the EC50 ([6]; E11 KO) is reported as 17 ± 7 nM and the “Max stimulation (% over basal)” value ([6]; E11 KO) is reported as 23 ± 1 % over basal. For the same compound, the EC50 ([6]; WT) was 222 ± 31 nM, the “Max stimulation (% over basal)” value ([6]; WT) was 39 ± 2 % over basal and the “Hill Slope” value [5] was −0.7 ± 0.1. The Emax [7] was -3 ± 1%, the “MOR-1 Variants required for analgesia” value [9] was 7TM + 6TM and the “analgesic activity in E11 KO mice” value [12, 17] was “eliminated the analgesic response”. The “analgesic ED50” value ([12]; WT C57Bl/6 mice, i.c.v.) was 3.39 µg.

In the case of DPDPE, the “MOR-1 Variants required for analgesia” value [1] is given as 7TM + 6TM.

In the case of `O=C(N[C@@H]1CC[C@@]2(O)[C@H]3Cc4ccc(O)c5c4[C@@]2(CCN3CC2CC2)[C@H]1O5)c1cccc(I)c1` [IBNtxA, 3-iodobenzoyl-6β-naltrexamide], the “MOR-1 Variants required for analgesia” value [1] is given as 6TM and the “rescue of analgesia by mMOR-1G lentivirus in E1/E11 KO mice” value [14] is given as “able to rescue”.

In the case of `Clc1cccc(Cl)c1N=C1NCCN1` [Clonidine], the “MOR-1 Variants required for analgesia” value [1] is given as 6TM.

In the case of `COC(=O)[C@@H]1C[C@H](OC(C)=O)C(=O)[C@H]2[C@@]1(C)CC[C@H]1C(=O)O[C@H](c3ccoc3)C[C@]21C` [Salvinorin A], the “MOR-1 Variants required for analgesia” value [1] is listed as 6TM.

`CC(C)[C@H](NC(=O)[C@H](Cc1ccccc1)NC(=O)[C@H](Cc1ccccc1)NC(=O)[C@@H](C)NC(=O)[C@@H](N)Cc1ccc(O)cc1)C(N)=O` [TAPPV, Tyr-D-Ala-Phe-Phe-Val-NH2] (H-Y[dA]FFV-NH2) gave a Ki [3] greater than 500 nM and a Ki [4] greater than 500 nM.

In the case of `NC(=O)[C@H](Cc1ccccc1)NC(=O)[C@H](Cc1ccccc1)NC(=O)[C@@H]1CCCN1C(=O)[C@@H](N)Cc1ccc(O)cc1` [Endomorphin 2, Tyr-Pro-Phe-Phe-NH2], the “Max stimulation (% over basal)” value ([6]; E1/E11 KO) is reported as 1 ± 1 % over basal, the EC50 ([6]; E11 KO) is reported as 103 ± 8 nM and the “Max stimulation (% over basal)” value ([6]; E11 KO) is reported as 24 ± 2 % over basal. The EC50 ([6]; WT) was 151 ± 43 nM, the “Max stimulation (% over basal)” value ([6]; WT) was 35 ± 1 % over basal and the Emax [7] was -3 ± 2%. The “MOR-1 Variants required for analgesia” value [9] was 7TM + 6TM, the “analgesic activity in E11 KO mice” value [12, 17] was “eliminated the analgesic response” and the “analgesic ED50” value ([12]; WT C57Bl/6 mice, i.c.v.) was 1.14 µg.

For `C[C@@H](NC(=O)[C@@H](N)Cc1ccc(O)cc1)C(=O)N[C@@H](Cc1ccccc1)C(=O)N(C)CC(N)=O` [TAPS, Tyr-D-Ala-Phe-Sar-NH2] (H-Y[dA]F[Sar]-NH2), the Ki [2] was greater than 500 nM, the Ki [15] was 35 ± 2 nM and the Ki [3] was 6 ± 0.7 nM. The Ki [4] was 50 ± 8 nM.
